Results on 18 molecules are retold here after ChEMBL document CHEMBL6134863, “Novel Mitochondria-Targeted Asymmetric Heptamethine Cyanine Dye for Cancer Targeted NIR Imaging and Potent Necrosis and Senescence Induction with Prolonged Retention” (J Med Chem, 2025).

The source made the active and inactive calls. The calls are words filed in the database; no cut-off is given here. A value given as a limit tells only on which side of the number the result lay.

Data set [1] is described as follows: Drug accumulation in tumor to muscle of BALB/c mouse implanted with mouse 4T1 cells at 0.5 mg/kg, iv measured at 4 to 168 hrs. To be noted: in vivo, time 4-168 hrs. The data set is classed as ADME, organism-based.
A short description of data set [2]: Distribution coefficient, logD of compound. The data set is classed as physicochemical. Conditions: octanol/water.
Data set [3] can be described thus: Partition coefficient, logP of compound. To be noted: octanol/water. The format is physicochemical.
A short description of data set [4]: Solubility of compound in DMSO-H2O. The format is physicochemical.
Data set [5] can be described thus: Drug uptake in mouse 4T1 cells assessed as increase in green fluorescence intensity at 5 uM incubated for 30 mins by F-actin staining staining based microscopic analysis. The format is ADME, cell-based. To be noted: 4t1, 0.5 h.
Data set [6] in a line: Drug uptake in mouse 4T1 cells assessed as increase in red fluorescence intensity at 5 uM incubated for 30 mins by CY7 staining based microscopic analysis. The data set is classed as ADME, cell-based. To be noted: 4t1, 0.5 h.
The nature of data set [7]: Drug uptake in human NCI-H226 cells assessed as increase in green fluorescence intensity at 5 uM incubated for 30 mins by F-actin staining staining based microscopic analysis. The data set is classed as ADME, cell-based. To be noted: nci-h226, 0.5 h.
Data set [8] is described as follows: Ratio of drug level in tumor to muscle of BALB/c mouse implanted with mouse 4T1 cells at 0.5 mg/kg, iv measured at 12 to 24 hrs. The format is ADME, organism-based. To be noted: in vivo, time 12-24 hrs.
The nature of data set [9]: Drug uptake in human NCI-H226 cells assessed as increase in red fluorescence intensity at 5 uM incubated for 30 mins by CY7 staining based microscopic analysis. The data set is classed as ADME, cell-based. To be noted: nci-h226, 0.5 h.
The test system of data set [10] is NCI-H226. Nature of the data set: Cytotoxicity against human NCI-H226 assessed as decrease in cell viability up to 10 uM incubated for 24 hrs by CCK-8 assay. The format is functional, cell-based. On the technique in general: Formazan colour is commonly taken as a measure of viable cells.
Data set [11] is described as follows: Photostability of compound in DMSO-H2O incubated for 1 hr irradiated with deuterium lamp by absorbance based analysis. Conditions: read-out: Stability. The data set is classed as physicochemical.

A word on the logD: it is lipophilicity at a set pH, counting ionised and neutral species. A lower logD goes with a more hydrophilic compound. For orientation: logP means a log measure of how a compound divides between an organic and an aqueous phase. Regarding `Cc1ccc2c(c1)C(C)(C)C(/C=C/C1=C(Cl)C(=C/C=C3/N(Cc4ccc(C(=O)O)cc4)c4ccc(C)cc4C3(C)C)/CCC1)=[N+]2Cc1ccc(C(=O)O)cc1.[Br-]`, the Drug uptake result in data set [1] was “Active”. The molecule further registered a logD in data set [2] of 4.74. The lipophilicity (logP) in data set [3] was 6.14.

Regarding `COC(=O)CCC(=O)CNC(=O)c1ccc(CN2/C(=C/C=C3\CCCC(/C=C/C4=[N+](Cc5ccc(C(=O)NCC(=O)CCC(=O)OC)cc5)c5ccc6ccccc6c5C4(C)C)=C3Cl)C(C)(C)c3c2ccc2ccccc32)cc1.[Br-]`, the Drug uptake result in data set [1] is “Active”. Further, in [2], the logD amounted to 5.28. Also, the logP in data set [3] was found to be 7.21.

The term solubility denotes the concentration that dissolves in the medium under given conditions. Take `CC1(C)C(/C=C/C2=C(Cl)C(=C/C=C3/N(CCCCCC(=O)O)c4ccccc4C3(C)C)/CCC2)=[N+](CCCOc2ccc(C(=O)O)cc2)c2ccccc21.[Br-]`: the solubility in data set [4] was found to be 170 µg/mL. The Drug uptake entry in [5], in [1], in data set [6], in data set [7] and in data set [9] was “Active” throughout. Moreover, in [2], the pH-dependent lipophilicity (logD) is 4.23. The Ratio in data set [8] was > 5. Besides, the lipophilicity (logP) in [3] was 5.9.

`COC(=O)CNC(=O)c1ccc(CN2/C(=C/C=C3\CCCC(/C=C/C4=[N+](Cc5ccc(C(=O)NCC(=O)OC)cc5)c5ccc6ccccc6c5C4(C)C)=C3Cl)C(C)(C)c3c2ccc2ccccc32)cc1.[Br-]`: the Drug uptake result in [1] is reported as “Active”. In data set [2], the pH-dependent lipophilicity (logD) was 5.6. Further, in [3], the lipophilicity (logP) was 7.23.

`CC1(C)C(/C=C/C2=C(Cl)C(=C/C=C3/N(CCOc4ccccc4C(=O)O)c4ccc5ccccc5c4C3(C)C)/CCC2)=[N+](CCOc2ccccc2C(=O)O)c2ccc3ccccc3c21`: the log distribution coefficient (logD) in data set [2] came out at 3.73. Besides, in data set [3], the logP came to 7.27.

Regarding `COC(=O)CNC(=O)c1ccc(OCCCN2/C(=C/C=C3\CCCC(/C=C/C4=[N+](CCCOc5ccc(C(=O)NCC(=O)OC)cc5)c5ccc6ccccc6c5C4(C)C)=C3Cl)C(C)(C)c3c2ccc2ccccc32)cc1.[Br-]`, the Drug uptake result in data set [1] was “Active”. In addition, in data set [2], the logD was 5.51. In addition, in [3], the log partition coefficient (logP) is 7.45.

In the case of `COC(=O)CNC(=O)CCN1/C(=C/C=C2\CCCC(/C=C/C3=[N+](CCC(=O)NCC(=O)OC)c4ccc5ccccc5c4C3(C)C)=C2Cl)C(C)(C)c2c1ccc1ccccc21`, the log distribution coefficient (logD) in data set [2] turned out to be 3.39. The logP in data set [3] was determined as 6.18.

Regarding `CC1(C)C(/C=C/C2=C(Cl)C(=C/C=C3/N(CCCOc4ccc(C(=O)O)cc4)c4ccc5ccccc5c4C3(C)C)/CCC2)=[N+](CCCOc2ccc(C(=O)O)cc2)c2ccc3ccccc3c21.[Br-]`, the Drug uptake result in data set [1] is “Active”. In data set [2], this molecule showed a logD of 4.19. The molecule further gave a logP in data set [3] of 7.24.

Molecule `CC1(C)C(/C=C/C=C/C=C/C=C2/N(Cc3ccc(C(=O)O)cc3)c3ccc4ccccc4c3C2(C)C)=[N+](Cc2ccc(C(=O)O)cc2)c2ccc3ccccc3c21.[Br-]` displayed a solubility in data set [4] of 170 µg/mL. The same molecule registered a log distribution coefficient (logD) in [2] of 3.59. In [3], the logP came to 7.06.

`CC1(C)C(/C=C/C2=C(Cl)C(=C/C=C3/N(Cc4ccc(C(=O)O)cc4)c4ccc(N)cc4C3(C)C)/CCC2)=[N+](Cc2ccc(C(=O)O)cc2)c2ccc(N)cc21` displayed a logD in [2] of 3.22. For the same molecule, in data set [3], the logP was 5.6.

For `CC1(C)C(/C=C/C=C/C=C/C=C2/N(CCCOc3ccc(C(=O)O)cc3)c3ccc4ccccc4c3C2(C)C)=[N+](CCCOc2ccc(C(=O)O)cc2)c2ccc3ccccc3c21.[Br-]`, the solubility in [4] stood at 170 µg/mL. In addition, the log distribution coefficient (logD) in data set [2] came out at 3.79. The molecule also showed a lipophilicity (logP) in data set [3] of 7.26.

`Cc1ccc2c(c1)C(C)(C)C(/C=C/C1=C(Cl)C(=C/C=C3/N(CCCOc4ccc(C(=O)O)cc4)c4ccc(C)cc4C3(C)C)/CCC1)=[N+]2CCCOc1ccc(C(=O)O)cc1.[Br-]`: in [1], the Drug uptake result was “Active”. In data set [2], this molecule yielded a logD of 4.02. This molecule also gave a log partition coefficient (logP) in data set [3] of 6.41.

`CC1(C)C(/C=C/C=C/C=C/C=C2\N(CCCCS(=O)(=O)O)c3ccc4ccccc4c3C2(C)C)=[N+](CCCCS(=O)(=O)[O-])c2ccc3ccccc3c21` [INDOCYANINE GREEN]: the outcome in data set [10] was Active. Further, the remaining at 1 h in data set [11] amounted to 95.2%.

For `COC(=O)CNC(=O)c1ccc(OCCC[N+]2=C(/C=C/C3=C(Cl)C(=C/C=C4/N(Cc5ccc(C(=O)O)cc5)c5ccccc5C4(C)C)/CCC3)C(C)(C)c3ccccc32)cc1.[Br-]`, the Drug uptake result in data set [5], in data set [1], in data set [6], in [7] and in data set [9] was “Active” each time. Moreover, the logD in [2] was 4.3. The Ratio in [8] was > 5. The logP in data set [3] amounted to 6.18.

`CC(C)(C)OC(=O)Nc1ccc2c(c1)C(C)(C)C(/C=C/C1=C(Cl)C(=C/C=C3/N(Cc4ccc(C(=O)O)cc4)c4ccc(NC(=O)OC(C)(C)C)cc4C3(C)C)/CCC1)=[N+]2Cc1ccc(C(=O)O)cc1` returned a log distribution coefficient (logD) in data set [2] of 3.78. This molecule also yielded a logP in [3] of 6.92.

In [2], `COC(=O)C(C)NC(=O)CCN1/C(=C/C=C2\CCCC(/C=C/C3=[N+](CCC(=O)NC(C)C(=O)OC)c4ccccc4C3(C)C)=C2Cl)C(C)(C)c2ccccc21` (stereo not drawn) yielded a log distribution coefficient (logD) of 3.92. Besides, the log partition coefficient (logP) in data set [3] came out at 5.36.

As to `COC(=O)CCC(=O)CNC(=O)c1ccc(CN2/C(=C/C=C3\CCCC(/C=C/C4=[N+](Cc5ccc(C(=O)NCC(=O)CCC(=O)OC)cc5)c5ccccc5C4(C)C)=C3Cl)C(C)(C)c3ccccc32)cc1.[Br-]`, the Drug uptake entry in [5], in data set [1], in data set [6], in [7] and in data set [9] was “Active” throughout. The pH-dependent lipophilicity (logD) in data set [2] was found to be 4.48. Besides, the Ratio in [8] is reported as > 5. In addition, the logP in data set [3] is 6.17.

Take `CCN1/C(=C/C=C2\CCCC(/C=C/C3=[N+](Cc4ccc(C(=O)O)cc4)c4ccccc4C3(C)C)=C2Cl)C(C)(C)c2ccccc21.[Br-]`: the Drug uptake result in data set [5] is given as “Not_active”; in data set [1] it was “Active”; in data set [6] it was “Not_active”; in data set [7] it was “Not_active”; in data set [9] it was “Not_active”. Besides, the logD in [2] amounted to 4.24. In addition, in data set [3], the logP was determined as 5.89.
